Read-outs that look alike come from different tables or passages of the source.
Legend:
[1] = system: Gram-positive bacteria associated with perspiration odor; settings: Sensiva product literature, Schulke & Mayr; cited from earlier work
[2] = for Foam Height Time = 0 min: after 10 seconds of vigorous shaking; for Foam Height Time = 30 min: after 30 minutes of standing
Protocol: In such a test, 50 mL of the solution being tested is placed in a 100 mL graduated cylinder (2.6 cm in diameter). The foam height is measured after 10 seconds of vigorous shaking of the cylinder containing the test solution. Foam height after 30 minutes of standing is also measured to evaluate foam draining propensity of the test solutions.

[3] = octoxyglycerin 0.05 ppm in Table 1 formulation
[4] = octoxyglycerin 0.10 ppm in Table 1 formulation
[5] = octoxyglycerin 0.25 ppm in Table 1 formulation
[6] = octoxyglycerin 0.50 ppm in Table 1 formulation
[7] = octoxyglycerin 0.75 ppm in Table 1 formulation
[8] = octoxyglycerin 1.00 ppm in Table 1 formulation
[9] = octoxyglycerin 2.00 ppm in Table 1 formulation

CCCCC(CC)COCC(O)CO (stereo not shown) [octoxyglycerin, 3-[(2-ethylhexyl)oxy]-1,2-propanediol]
antimicrobial activity against Gram-positive bacteria [1]: exhibit antimicrobial activity | control of foaming ([2]; amounts over 0.05 ppm, multi-purpose lens care products with over 3.0 wt % foaming surfactants (Pluronic F127, Tetronic 1107)): effective control of foaming | Foam Height Time = 0 min [2, 3]: 3.8 ± 0.2 cm | Foam Height Time = 30 min [2, 3]: 3.0 ± 0.3 cm | Foam Height Time = 0 min [2, 4]: 2.6 ± 0.4 cm | Foam Height Time = 30 min [2, 4]: 2.0 ± 0.2 cm | Foam Height Time = 0 min [2, 5]: 1.3 ± 0.2 cm | Foam Height Time = 30 min [2, 5]: 0.8 ± 0.2 cm | Foam Height Time = 0 min [2, 6]: 0.7 ± 0.2 cm | Foam Height Time = 30 min [2, 6]: 0.4 ± 0.1 cm | Foam Height Time = 0 min [2, 7]: 0.3 ± 0.1 cm | Foam Height Time = 30 min [2, 7]: 0.2 ± 0.1 cm | Foam Height Time = 0 min [2, 8]: 0.1 ± 0.0 cm | Foam Height Time = 30 min [2, 8]: 0.0 ± 0.0 cm | Foam Height Time = 0 min [2, 9]: 0.1 ± 0.0 cm | Foam Height Time = 30 min [2, 9]: 0.0 ± 0.0 cm
